The text below walks through data of article PMC4229968, “The Inhibition of the Components from Shengmai Injection towards UDP-Glucuronosyltransferase” (Evidence-based Complementary and Alternative Medicine : eCAM, 2014).

Series [1] has as its target T1, UGT1A4 (Homo sapiens, UniProt P22310).
T1 construct: purchased BD Gentest Corp. (Woburn, MA, USA); host or cells: baculovirus-infected insect cells
T1 sequence (P22310 29-534): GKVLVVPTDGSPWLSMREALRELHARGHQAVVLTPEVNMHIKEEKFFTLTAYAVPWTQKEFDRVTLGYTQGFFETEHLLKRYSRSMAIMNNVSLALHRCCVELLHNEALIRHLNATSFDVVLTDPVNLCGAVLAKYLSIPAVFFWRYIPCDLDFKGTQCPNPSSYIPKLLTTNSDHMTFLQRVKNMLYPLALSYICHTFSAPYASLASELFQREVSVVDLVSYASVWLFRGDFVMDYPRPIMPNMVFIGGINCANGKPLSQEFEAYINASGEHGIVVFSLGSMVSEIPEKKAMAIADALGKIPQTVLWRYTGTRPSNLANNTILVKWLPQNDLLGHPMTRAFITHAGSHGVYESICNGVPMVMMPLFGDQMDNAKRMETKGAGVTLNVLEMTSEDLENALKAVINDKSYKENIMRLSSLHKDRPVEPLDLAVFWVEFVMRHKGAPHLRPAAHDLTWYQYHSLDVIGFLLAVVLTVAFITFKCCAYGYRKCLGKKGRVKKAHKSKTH
In words: Recombinant UGT1A4-catalyzed trifluoperazine (TFP) glucuronidation inhibition. The conditions noted are these: for activity at 20 min, 100 μM: UGT1A4, 100 μM of compound, TFP substrate (40 μM), read-out: residual activity. The series is classed as in vitro ADME. From the text:
(§1) 4-Methylumbelliferone (4-MU), 4-methylumbelliferone-β-D-glucuronide (4-MUG), Tris-HCl, 7-hydroxycoumarin, and uridine-5′-diphosphoglucuronic acid (UDPGA) (trisodium salt) were purchased from Sigma-Aldrich (St. Louis, MO). Recombinant human UGT isoforms (UGT1A1, UGT1A3, UGT1A4, UGT1A6, UGT1A7, UGT1A8, UGT1A9, UGT1A10, UGT2B4, UGT2B7, and UGT2B15) expressed in baculovirus-infected insect cells were obtained from BD Gentest Corp. (Woburn, MA, USA). Ophiopogonin D (OD), ophiopogonin D′ (OD′), methylophiopogonanone A (MA), methylophiopogonanone B (MB), and ruscorectal (RU) were purchased from Sichuan Weikeqi Biotechnology Company (Chengdu, Sichuan, China). The purity of these compounds was above 95%. All other reagents were of HPLC grade or of the highest grade commercially available.
Therefore, UGT1A4-catalyzed trifluoperazine (TFP) glucuronidation was carried out to evaluate inhibition of maidong's components towards UGT1A4 activity. As previously reported, TFP (40 μM, near its K m value) was incubated with 0.1 mg/mL recombinant UGT1A4 for 20 min in the presence or absence of maidong's ingredients.
To determine the inhibition kinetic type and parameters (K i), the reaction velocity (V) was determined at multiple concentrations of maidong's components and 4-MU (or TFP). Dixon plot and Lineweaver-Burk plot were used to fit the data. The inhibition kinetic type was evaluated through determining the intersection point in the Dixon and Lineweaver-Burk plots.
K m value is the substrate concentration in which the velocity reached half of the maximum velocity (V max) of the reaction. K i value is the inhibition constant.

Series [2] addresses T2, UGT2B4 (Homo sapiens, UniProt P06133).
T2 construct: purchased BD Gentest Corp. (Woburn, MA, USA); host or cells: baculovirus-infected insect cells
T2 sequence (P06133 24-528): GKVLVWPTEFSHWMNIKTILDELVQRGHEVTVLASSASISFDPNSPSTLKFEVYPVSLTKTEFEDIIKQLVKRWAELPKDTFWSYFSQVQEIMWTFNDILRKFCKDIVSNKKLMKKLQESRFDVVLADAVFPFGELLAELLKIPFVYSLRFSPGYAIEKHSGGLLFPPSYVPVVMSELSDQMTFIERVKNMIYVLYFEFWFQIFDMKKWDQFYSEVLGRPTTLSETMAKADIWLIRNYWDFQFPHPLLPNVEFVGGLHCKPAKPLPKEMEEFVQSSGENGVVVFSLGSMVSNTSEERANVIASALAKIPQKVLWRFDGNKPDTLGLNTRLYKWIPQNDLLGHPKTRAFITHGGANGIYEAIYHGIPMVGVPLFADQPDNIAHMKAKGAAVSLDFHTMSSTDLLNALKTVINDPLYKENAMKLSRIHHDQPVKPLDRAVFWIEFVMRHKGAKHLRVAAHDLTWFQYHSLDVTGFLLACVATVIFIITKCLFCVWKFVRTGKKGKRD
In words: Recombinant UGT2B4-catalyzed 4-MU glucuronidation inhibition. The series is classed as in vitro ADME. The conditions noted are these: pH 7.4, probe 4-methylumbelliferone (4-MU), UGT2B4, 100 μM of compound, 4-MU substrate, read-out: residual activity.
Description: as §1
4-MU, the nonspecific probe substrate for all the UGT isoforms except UGT1A4, was used in the present study to initially screen the inhibition potential of maidong's components towards UGT isoforms as previously reported. In brief, the incubation system (total volume = 200 μL) consisted of recombinant UGTs, 5 mM UDPGA, 5 mM MgCl2, 50 mM Tris-HCl (pH = 7.4), and 4-MU in the absence or presence of different concentrations of maidong's components. The compounds were dissolved in DMSO, and the final concentration of DMSO was below 0.5% (v/v). The used incubation time and protein concentration were previously determined to ensure the reaction rate within the linear range. The 4-MU concentration was equal to known K m or S 50 values for each UGT isoform. After 5 min preincubation at 37°C, the incubation reaction was initiated via adding UDPGA to the mixture system. The reactions were quenched by adding 100 μL acetonitrile with 7-hydroxycoumarin (100 μM) as internal standard. Centrifuged at 20000 ×g for 10 min, an aliquot of supernatant was transferred to an autoinjector vial for HPLC analysis. The HPLC system (Shimadzu, Kyoto, Japan) contained a SCL-10A system controller, two LC-10AT pumps, a SIL-10A autoinjector, and a SPD-10AVP UV detector. Chromatographic separation was carried out using a C18 column (4.6 × 200 mm, 5 μm, Kromasil) at a flow rate of 1 mL/min and UV detector at 316 nm. The mobile phase consisted of acetonitrile (A) and H2O containing 0.5% (v/v) formic acid (B). The following gradient condition was used: 0–15 min, 95–40% B; 15–20 min, 10% B; 20–30 min, 95% B.

The mark [3] stands for this setting: human, probe trifluoperazine (TFP).

As for `Cc1c(O)c(C)c2c(c1O)C(=O)[C@H](Cc1ccc3c(c1)OCO3)CO2` [MA, methylophiopogonanone A], the activity at 20 min, 100 μM in series [1] (setting [3]) turned out to be 70.4 ± 3.8%. In series [2], the activity at 100 µM was found to be 71.1 ± 1.5%.

With `COc1ccc(C[C@@H]2COc3c(C)c(O)c(C)c(O)c3C2=O)cc1` [MB, methylophiopogonanone B], the activity at 20 min, 100 μM in series [1] (setting [3]) was determined as 81.1 ± 8%. Moreover, the activity at 100 µM in series [2] turned out to be 73.2 ± 1.2%.

For the molecule `C[C@@H]1CC[C@@]2(OC1)O[C@H]1C[C@H]3[C@@H]4CC=C5C[C@@H](O)C[C@@H](O[C@@H]6O[C@H](C)[C@H](O)[C@H](O[C@@H]7OC[C@@H](O)[C@H](O)[C@H]7O)[C@H]6O[C@@H]6O[C@@H](C)[C@H](O)[C@@H](O)[C@H]6O)[C@]5(C)[C@H]4CC[C@]3(C)[C@H]1[C@@H]2C` [OD, ophiopogonin D], in series [1] (setting [3]), the activity at 20 min, 100 μM amounted to 24.6 ± 1.6%. Also, the activity at 100 µM in series [2] was found to be 102 ± 2.6%.

`C[C@@H]1CC[C@@]2(OC1)O[C@H]1C[C@H]3[C@@H]4CC=C5C[C@@H](O[C@@H]6O[C@H](CO)[C@@H](O)[C@H](O[C@@H]7OC[C@@H](O)[C@H](O)[C@H]7O)[C@H]6O[C@@H]6O[C@@H](C)[C@H](O)[C@@H](O)[C@H]6O)CC[C@]5(C)[C@H]4CC[C@]3(C)[C@H]1[C@@H]2C` [OD′, ophiopogonin D′]: the activity at 20 min, 100 μM in series [1] (setting [3]) came out at 21 ± 1.6%. The activity at 100 µM in series [2] was found to be 118 ± 21.8%.

As to `CC1CCC2(OC1)OC1CC3C4CC=C5CC(O)CC(O)C5(C)C4CCC3(C)C1C2C` (stereo not shown) [RU, ruscorectal], in series [1] (UGT1A4, TFP glucuronidation, Dixon and Lineweaver-Burk plots), the inhibition type result is listed as “competitive inhibition”. Besides, the Ki in series [1] (UGT1A4-catalyzed TFP glucuronidation, read-out: inhibition kinetic parameter (Ki)) was found to be 20 nM. For the same molecule, the inhibition at 20 min, 100 µM in series [1] (human, probe trifluoperazine (TFP), 40 μM, UGT1A4, at 100 μM, read-out: inhibition percent) was roughly 100%. Further, in series [1] (setting [3]), the activity at 20 min, 100 μM is 0%. The activity at 100 µM in series [2] turned out to be 88.4 ± 1.6%.
